Several values for one entry are separate records, joined by “and”; a condition that tells them apart may be missing. Equal values may be shown once.
Experiments:
male germ cells [1] = assay type: in vivo, mouse; details: for germ cell apoptosis in testicular cross sections (TUNEL) compared to control: 24 hours after IP injection
Procedure: Young adult mice (12-13 weeks) were randomly divided into 4 groups with 4 or 5 mice per group and received an IP injection: control (Con) (saline), HN (40 mg/Kg BW), CP (200 mg/Kg BW), and the combination of CP+HN. These experiments were repeated four times. In the CP+HN group, mice received an injection of HN followed by an injection of CP about 15 minutes later. Twenty-four hours after injections animals were sacrificed using 5% pentobarbital (200 mg/kg BW) IP injection. Blood was collected and one testis was removed, weighed and frozen in liquid nitrogen. The mouse was next perfused with saline and then subsequently perfuse-fixed with Bouin's solution as previously described and apoptosis was assessed by TUNEL assay (Lue, et al., 2009).
For detection of apoptosis in testicular sections, the paraffin embedded testis tissue was cut into 5 micron sections and stained with the TdT-mediated dUTP nick-end labeling assay (TUNEL Apoptosis Detection Kit, Millipore, Billerica, Mass.) to detect apoptosis of germ cells in the testis (Lue, et al., 2009). Testicular sections assayed by TUNEL were examined under a light microscope and the apoptotic germ cells were blindly and manually counted. The seminiferous tubules in the testis section under the microscope were grouped as stages IX-IV (early-late stages of spermatogenesis) and V-VIII (middle stages of spermatogenesis). Germ cell apoptosis was quantified as the number of seminiferous tubules containing apoptotic spermatogonia, spermatoctyes, round spermatids and spermatozoa per 100 seminiferous tubules (Drumond, et al., 2011).
Statistical analyses of the majority of the data was performed using the Sigma Plot 12 program (Jandel, San Rafael, Calif.). The data were analyzed by using t-tests and one-way ANOVA followed by Student-Newman-Keuls Method. P-values of less than 0.05 (P<0.05) were considered significant. In in vivo experiments when the testicular sections were assessed for apoptosis, a mixed model used the percentage of tubules with apoptosis as the dependent variable. Two different stages (Early or Late Vs Middle) and four treatment groups (Control, HN CP, CP+HN) as well as the interaction term were included in the model as independent variables. Persons who did the experiment were considered as a random effect to accommodate a potential heterogeneous variance in the model. Least Square Means and their differences were computed and tested using the Tukey's adjustment for multiple pair-wise comparisons. A residual analysis was done to check for the model assumptions. All the data analysis was carried out using SAS 9.3 (Cary, N.C. USA).

male germ cells [2] = assay type: in vivo, mouse
Procedure: (§1) For the HN analog experiments, male mice were divided into seven groups (n=4-5 per group) and received one of the following treatments and sacrificed after 24 hours: 1) vehicle (control); 2) a single intra-peritoneal (IP) injection of HN peptide [HN, 40 mg/Kg body weight (BW)]; 3) a single IP injection of CP (CP, 200 mg/Kg BW); 4) IP injection of CP and HN (CP+HN); 5) a single IP injection of each HN analog (HNG 5 mg/Kg BW, HNG-F6A 5 mg/Kg BW, HN-S7A 40 mg/Kg BW, HN-C8P 40 mg/Kg BW, or HN-L12A 40 mg/Kg BW); 6) IP injection of CP and each HN analog (CP+HNG, HNG-F6A, HN-S7A, HN-C8P, or HN-L12A); and 7) IP injection of CP+HN+HN analog (HN-S7A, HN-C8P, or HN-L12A; to assess whether the analogs has enhancing or inhibitory effect on HN).
(§2) To facilitate testicular fixation by using a whole-body perfusion technique, all animals were injected with heparin (130 IU/100 g BW, IP) 15 min before a lethal injection of sodium pentobarbital (200 mg/kg BW, IP) (Lue Y H, et al., 1999). One testis was removed and weighed after perfusion with saline. Portions of testicular parenchyma were snap frozen in liquid nitrogen, and stored at −80 C for Western blotting. The other testis was fixed by vascular perfusion with Bouin's solution, and processed with routine paraffin embedding for in situ detection of apoptosis.
Detection of apoptotic cells was performed in Bouin's′-fixed, paraffin-embedded testicular sections by the terminal deoxynucleotidyl transferase (TdT)-mediated deoxy-UTP nick end labeling (TUNEL) technique (Sinha Hikim A P, et al., 1997) using an ApopTag-peroxidase kit (Chemicon International, Inc., Temecula, Calif.). Enumeration of the Sertoli cell nuclei with distinct nucleoli and apoptotic germ cell population was quantified at stages I-IV (early stages), stages VII-VIII (middle stages) and stages XI-XII (late stages) of the seminiferous epithelial cycle using an Olympus BH-2 microscope (New Hyde Park, N.Y.). Stages were identified according to the criteria proposed by Russell et al for paraffin sections (Russell L, 1977). The rate of germ cell apoptosis (apoptotic index, AI) was expressed as the number of apoptotic germ cells per Sertoli cells (Sinha Hikim A P, et al., 1997).

STAT3 = STAT3 phosphorylation in testis by western blot; assay type: in vivo, mouse; details: testis homogenates; for STAT3 phosphorylation (phosphorylated STAT3/STAT3) compared with control: treatment alone
Procedure: as §1, §2
Western blotting was performed as described previously (Jia Y, et al., 2009). In brief, proteins were denatured and separated by sodium dodecyl sulfate-polyacrylamide gel electrophoresis (SDS-PAGE) system (Invitrogen, Carlsbad, Calif.). After transferring, the Immuno-blot PVDF Membrane (Bio-Rad, Hercules, Calif.) was blocked for 1 h and then probed using anti-STAT3 or anti-pSer727 STAT3 (Cell signaling Technology, Inc., Beverly, Mass.) overnight at 4 C with constant shaking. After washing, membrane was then incubated with an anti-mouse (for STAT3 antibody, Santa Cruz Biotechnology, Santa Cruz, Calif.) or anti-rabbit (for pSer727 STAT3 antibody, Amersham Biosciences, Piscataway, N.J.) IgG-HRP secondary antibody. All antibodies were diluted in blocking buffer. For immunodetection, membrane was incubated with enhanced chemiluminescence solutions per the manufacturer's specifications (Amersham Biosciences, Piscataway, N.J.), and exposed to Hyperfilm ECL (Denville Scientific Inc., Metuchen, N.J.).

Leydig cells = test: Leydig cell depletion and testosterone levels in rats; assay type: in vivo, rat; details: for intratesticular testosterone levels / serum testosterone levels: rats, EDS 80 mg/kg, CP 70 mg/kg BW, HN 40 mg/kg BW, with or without EDS pre-treatment
male germ cells [3] = test system: male germ cells
[4] = EDS 80 mg/kg IP 3 days before, CP 70 mg/kg BW
[5] = rats not pre-treated with EDS, CP 70 mg/kg BW IP, 12 hours

Q: What does the source list for MAPRGFSCLLLLTSEIDLPVKRRA [HN]?
A: germ cell apoptosis in testicular cross sections (TUNEL) compared to control (male germ cells [1]; HN 40 mg/Kg, CP 200 mg/Kg): had no significant effect on germ cell apoptosis; CP-induced germ cell apoptosis (male germ cells [1]; HN 40 mg/Kg IP about 15 minutes before CP 200 mg/Kg IP, 24 hours): attenuated the CP-induced germ cell apoptosis; spontaneous germ cell apoptosis, peptide alone (male germ cells [2]; single IP, 24 hours, no CP): did not change the spontaneous germ cell apoptosis; inhibition of (protection against) CP-induced germ cell apoptosis, early+late stages (male germ cells [2]; stages I-IV and XI-XII, HN, HN-C8P 40 mg/kg BW, HNG, HNG-F6A 5 mg/kg BW): ~57% and ~60%; effect on CP-induced germ cell apoptosis, middle stages (male germ cells [2]; stages VII-VIII, 40 mg/kg BW): not in middle stages; STAT3 phosphorylation (phosphorylated STAT3/STAT3) compared with control (STAT3): did not change STAT3 phosphorylation; CP suppressed STAT3 (Ser727) phosphorylation (STAT3; with CP 200 mg/Kg): restored CP-induced Ser 727-phosphorylation of STAT3; EDS-induced Leydig cell loss (Leydig cells; HN administered 3 days after EDS pre-treatment): did not reverse the EDS-induced Leydig cell loss; intratesticular testosterone levels (Leydig cells): had no significant effects; serum testosterone levels (Leydig cells): had no significant effects; germ cell apoptosis at early and late stages in EDS pre-treated rats, addition of HN (male germ cells [3]; HN 40 mg/kg BW): did not significantly reduced germ cell apoptosis; CP effects at early and late stages in EDS pre-treated animals, addition of HN (male germ cells [3]; HN 40 mg/kg BW + CP + EDS): did not change the CP effects in EDS pre-treated animals; EDS-induced apoptosis of germ cells, middle stages (male germ cells [3]; HN 40 mg/kg BW IP 3 days after EDS): significantly reduced the EDS-induced apoptosis of germ cells; increase in apoptosis in CP+EDS group, middle stages (male germ cells [3]; concomitant HN 40 mg/kg BW): reduced by concomitant HN treatment; apoptosis in CP treated testis, middle (VII-VIII) stages (male germ cells [3]; rats not pre-treated with EDS, HN 40 mg/kg BW + CP): had no effect on CP treated testis; CP-induced apoptosis at early and late stages (male germ cells [3]; rats not pre-treated with EDS, HN 40 mg/kg BW IP + CP 70 mg/kg BW): significantly reduced CP-induced apoptosis

Q: With `O=P1(N(CCCl)CCCl)NCCCO1` (stereo not shown) [CP, cyclophosphamide monohydrate] as the compound, how does the “germ cell apoptosis in testicular cross sections (TUNEL) compared to control” value (male germ cells [1]; HN 40 mg/Kg, CP 200 mg/Kg) read?
A: significantly increased germ cell apoptosis

Q: What about the “germ cell apoptosis, percentage of tubules with apoptotic cells, early-late stages” value (male germ cells [1]; early-late stages of spermatogenesis, 24 hours, CP 200 mg/Kg, HN 40 mg/Kg) of the same compound?
A: significantly increased germ cell apoptosis

Q: What about the “germ cell apoptosis, percentage of tubules with apoptotic cells, middle stages” value (male germ cells [1]; middle stages (V-VIII), 24 hours, CP 200 mg/Kg, HN 40 mg/Kg) of the same compound?
A: significant increase in apoptosis

Q: And the “Apoptotic Index (AI), apoptotic germ cells per Sertoli cell, middle stages” value (male germ cells [2]; stages VII-VIII, 24 hours after single IP, CP 200 mg/Kg, HN, HN-S7A 40 mg/Kg, HNG, HNG-F6A 5 mg/Kg, monohydrate)?
A: 0.25±0.03 and 0.33±0.03

Q: And the “STAT3 phosphorylation (phosphorylated STAT3/STAT3) compared with control” value (STAT3)?
A: suppressed Ser727-phosphorylated STAT3 in testes

Q: And the intratesticular testosterone levels (Leydig cells)?
A: had no significant effects

Q: What about the serum testosterone levels (Leydig cells) of the same compound?
A: had no significant effects

Q: And the “CP induced germ cell apoptosis with versus without EDS pre-treatment, early and late stages” value (male germ cells [3]; CP 70 mg/kg BW)?
A: significantly lower in EDS pre-treated rats

Q: What about the “germ cell apoptosis at early (I-VI) and late (IX-XIV) stages, EDS pre-treated rats, compared to control” value (male germ cells [3]; [4]) of the same compound?
A: did not significantly increased germ cell apoptosis

Q: What about the “germ cell apoptosis in middle (VII-VIII) stages, EDS pre-treated rats” value (male germ cells [3]; [4]) of the same compound?
A: did not additively increased germ cell apoptosis caused by EDS treatment

Q: And the “germ cell apoptosis at early (I-VI) and late (IX-XIV) stages compared to control” value (male germ cells [3]; [5])?
A: significantly increased germ cell apoptosis

Q: What about the “germ cell apoptosis in the middle (VII-VIII) stages” value (male germ cells [3]; [5]) of the same compound?
A: did not increase apoptosis in the middle (VII-VIII) stages

— patent publication US20150374784A1, “COMPOSITIONS AND METHODS FOR REDUCING GERM CELL DEATH” (Los Angeles Biomedical Research Institute at Harbor-UCLA …, priority 2014, published 2015)
